Test results as given in patent US7238694B2, “Rifamycin imino derivatives effective against drug-resistant microbes” (Cumbre Pharmaceuticals, Inc., priority 2004, dated 2007).
Converted amounts (≈) assume the structure as drawn. Read-outs that look alike come from different tables or passages of the source.

Legend:
Assay type in all cases: cell-based
[1] = test system: Staphylococcus aureus ATCC29213; test: MIC, microbroth dilution (NCCLS)
[2] = test system: Staphylococcus aureus ATCC29213 rpoB^H418Y; test: microbe, parasite or virus in culture
[3] = test system: Staphylococcus aureus MT1222 gyrA^A116E grlB^S80F; test: microbe, parasite or virus in culture
[4] = test system: Staphylococcus epidermidis ATCC12228; test: MIC, microbroth dilution (NCCLS)
[5] = test system: Streptococcus pneumoniae ATCC6303; test: MIC, microbroth dilution (NCCLS)
[6] = test system: Streptococcus pyogenes ATCC19615; test: MIC, microbroth dilution (NCCLS)
[7] = test system: Haemophilus influenzae ATCC10211; test: MIC, microbroth dilution (NCCLS)
[8] = test system: Staphylococcus aureus ATCC29213 rpoB^D417Y; test: microbe, parasite or virus in culture
[9] = test system: Enterococcus faecalis ATCC29212; test: MIC, microbroth dilution (NCCLS)
[10] = test system: Escherichia coli ATCC25922; test: MIC, microbroth dilution (NCCLS)
[11] = test system: Mycobacterium smegmatis ATCC700084; test: MIC, microbroth dilution (NCCLS)
[12] = MIC, panel of rifampin-susceptible Gram-positive strains; conditions: text summary over five rifampin-susceptible Gram-positive strains
[13] = test system: H. influenzae ATCC 10211 and E. coli ATCC 25922; test: MIC, Gram-negative bacteria; conditions: text summary over two Gram-negative strains
[14] = rifS strain, Cation-Adjusted Mueller-Hinton Broth, 37° C., read-out: MIC
[15] = Staphylococcus aureus, ATCC29213, rifR strain, Cation-Adjusted Mueller-Hinton Broth, 37° C., read-out: MIC
[16] = cipR strain, Cation-Adjusted Mueller-Hinton Broth, 37° C., read-out: MIC
[17] = rifS strain, THY Broth with 1 mg/mL catalase, 5% CO2, 37° C., read-out: MIC
[18] = rifS strain, THY Broth, 37° C., read-out: MIC
[19] = rifS strain, BHI Broth with NAD and hematin, 37° C., read-out: MIC
[20] = Staphylococcus aureus, ATCC29213
[21] = rifR strain, Cation-Adjusted Mueller-Hinton Broth, 37° C.

Which MIC [1, 14] does the source give for `COc1c(N2CCC(N3CCN(/N=C/c4c5c(O)c6c(O)c(C)c7c(c6c4O)C(=O)[C@@](C)(O/C=C/[C@H](OC)[C@@H](C)[C@@H](OC(C)=O)[C@H](C)[C@H](O)[C@H](C)[C@@H](O)[C@@H](C)/C=C/C=C(/C)C(=O)N5)O7)CC3)CC2)c(F)cc2c(=O)c(C(=O)O)cn(C3CC3)c12` [Example 27, 3-{4-[1-(3-Carboxy-1-cyclopropyl-6-fluoro-8-methoxy-4-oxo-1,4-dihydroquinolin-7-yl)-piperidin-4-yl]-piperazin-1-yl-aminomethylenyl}-rifamycin SV] here?
The MIC was 0.008 to 1 µg/mL (≈ 0.00685 to 0.857 µM).

And the MIC [2, 15]?
The MIC was 0.06 to 16 µg/mL (≈ 0.0514 to 13.7 µM).

What about the MIC [3, 16] of the same molecule?
The MIC was 0.008 to 0.125 µg/mL (≈ 0.00685 to 0.107 µM).

And the MIC [4, 14]?
Its MIC is 0.008 to 0.1 µg/mL (≈ 0.00685 to 0.0857 µM).

What about the MIC [5, 17] of the same molecule?
Its MIC is 0.008 to 0.06 µg/mL (≈ 0.00685 to 0.0514 µM).

What about the MIC [6, 18] of the same molecule?
The MIC was 0.008 to 0.03 µg/mL (≈ 0.00685 to 0.0257 µM).

And the MIC [7, 19]?
The MIC was 0.125 to 4 µg/mL (≈ 0.107 to 3.43 µM).

Which MIC [1, 14] does the source give for `COc1c(N2CCN(C(=O)C3CCN(/N=C/c4c5c(O)c6c(O)c(C)c7c(c6c4O)C(=O)[C@@](C)(O/C=C/[C@H](OC)[C@@H](C)[C@@H](OC(C)=O)[C@H](C)[C@H](O)[C@H](C)[C@@H](O)[C@@H](C)/C=C/C=C(/C)C(=O)N5)O7)CC3)CC2)c(F)cc2c(=O)c(C(=O)O)cn(C3CC3)c12` [Example 32, 3-{4-[4-(3-Carboxy-1-cyclopropyl-6-fluoro-8-methoxy-4-oxo-1,4-dihydroquinolin-7-yl)-piperazine-1-yl-carbonyl]-piperidin-1-yl-aminomethylenyl}-rifamycin SV] here?
The MIC was 0.008 to 1 µg/mL (≈ 0.00669 to 0.837 µM).

And the MIC [2, 15]?
The MIC was 0.06 to 16 µg/mL (≈ 0.0502 to 13.4 µM).

And the MIC [3, 16]?
The MIC was 0.008 to 0.125 µg/mL (≈ 0.00669 to 0.105 µM).

And the MIC [4, 14]?
Its MIC is 0.008 to 0.1 µg/mL (≈ 0.00669 to 0.0837 µM).

What about the MIC [5, 17] of the same molecule?
The MIC was 0.008 to 0.06 µg/mL (≈ 0.00669 to 0.0502 µM).

What about the MIC [6, 18] of the same molecule?
Its MIC is 0.008 to 0.03 µg/mL (≈ 0.00669 to 0.0251 µM).

And the MIC [7, 19]?
The MIC was 0.125 to 4 µg/mL (≈ 0.105 to 3.35 µM).

With `CO[C@H]1/C=C/O[C@@]2(C)Oc3c(C)c(O)c4c(O)c(c(/C=N/N5CCN(c6nc7c(cc6F)c(=O)c(C(=O)O)cn7C6CC6)CC5)c(O)c4c3C2=O)NC(=O)/C(C)=C\C=C\[C@H](C)[C@H](O)[C@@H](C)[C@@H](O)[C@@H](C)[C@H](OC(C)=O)[C@@H]1C` [Example 35, 3-[4-(3-Carboxy-1-cyclopropyl-6-fluoro-4-oxo-1,4-dihydro-[1,8]naphthyridine-7-yl)-piperazin-1-yl-aminomethylenyl]-rifamycin SV] as the molecule, how does the MIC [1, 14] read?
The MIC was 0.008 to 1 µg/mL (≈ 0.00758 to 0.948 µM).

And the MIC [2, 15]?
Its MIC is 0.06 to 16 µg/mL (≈ 0.0569 to 15.2 µM).

What about the MIC [3, 16] of the same molecule?
The MIC was 0.008 to 0.125 µg/mL (≈ 0.00758 to 0.118 µM).

What about the MIC [4, 14] of the same molecule?
The MIC was 0.008 to 0.1 µg/mL (≈ 0.00758 to 0.0948 µM).

And the MIC [5, 17]?
Its MIC is 0.008 to 0.06 µg/mL (≈ 0.00758 to 0.0569 µM).

And the MIC [6, 18]?
The MIC was 0.008 to 0.03 µg/mL (≈ 0.00758 to 0.0284 µM).

And the MIC [7, 19]?
The MIC was 0.125 to 4 µg/mL (≈ 0.118 to 3.79 µM).

Which results are given for `CO[C@H]1/C=C/O[C@@]2(C)Oc3c(C)c(O)c4c(O)c(c(/C=N/N5CCN(c6c(F)cc7c(=O)c(C(=O)O)cn(C8CC8)c7c6Cl)CC5)c(O)c4c3C2=O)NC(=O)/C(C)=C\C=C\[C@H](C)[C@H](O)[C@@H](C)[C@@H](O)[C@@H](C)[C@H](OC(C)=O)[C@@H]1C` [Example 40, 3-[4-(3-Carboxy-8-chloro-1-cyclopropyl-6-fluoro-4-oxo-1,4-dihydroquinolin-7-yl)-piperazin-1-yl-aminomethylenyl]-rifamycin SV]?
MIC [1, 14]: 0.008 to 1 µg/mL (≈ 0.00735 to 0.919 µM); MIC [2, 15]: 0.06 to 16 µg/mL (≈ 0.0551 to 14.7 µM); MIC [3, 16]: 0.008 to 0.125 µg/mL (≈ 0.00735 to 0.115 µM); MIC [4, 14]: 0.008 to 0.1 µg/mL (≈ 0.00735 to 0.0919 µM); MIC [5, 17]: 0.008 to 0.06 µg/mL (≈ 0.00735 to 0.0551 µM); MIC [6, 18]: 0.008 to 0.03 µg/mL (≈ 0.00735 to 0.0276 µM); MIC [7, 19]: 0.125 to 4 µg/mL (≈ 0.115 to 3.67 µM)

Which MIC [1, 14] does the source give for `COc1c(N2CCC(C(C)N/N=C/c3c4c(O)c5c(O)c(C)c6c(c5c3O)C(=O)[C@@](C)(O/C=C/[C@H](OC)[C@@H](C)[C@@H](OC(C)=O)[C@H](C)[C@H](O)[C@H](C)[C@@H](O)[C@@H](C)/C=C/C=C(/C)C(=O)N4)O6)C2)c(F)cc2c(=O)c(C(=O)O)cn(C3CC3)c12` (stereo partly drawn) [Example 42, 3-({1-[1-(3-Carboxy-1-cyclopropyl-6-fluoro-8-methoxy-4-oxo-1,4-dihydro-quinolin-7-yl)-pyrrolidin-3-yl]-ethyl}-hydrazinomethylenyl)-rifamycin SV] here?
Its MIC is 0.008 to 1 µg/mL (≈ 0.00719 to 0.899 µM).

And the MIC [2, 15]?
Its MIC is 0.06 to 16 µg/mL (≈ 0.0539 to 14.4 µM).

And the MIC [3, 16]?
Its MIC is 0.008 to 0.125 µg/mL (≈ 0.00719 to 0.112 µM).

And the MIC [4, 14]?
Its MIC is 0.008 to 0.1 µg/mL (≈ 0.00719 to 0.0899 µM).

What about the MIC [5, 17] of the same molecule?
Its MIC is 0.008 to 0.06 µg/mL (≈ 0.00719 to 0.0539 µM).

What about the MIC [6, 18] of the same molecule?
Its MIC is 0.008 to 0.03 µg/mL (≈ 0.00719 to 0.027 µM).

And the MIC [7, 19]?
Its MIC is 0.125 to 4 µg/mL (≈ 0.112 to 3.6 µM).

Which MIC [1] does the source give for `CO[C@H]1/C=C/O[C@@]2(C)Oc3c(C)c(O)c4c(O)c(c(/C=N/N5CCN(C)CC5)c(O)c4c3C2=O)NC(=O)/C(C)=C\C=C\[C@H](C)[C@H](O)[C@@H](C)[C@@H](O)[C@@H](C)[C@H](OC(C)=O)[C@@H]1C` [rifampin, reference compound] here?
Its MIC is 0.008 µg/mL (≈ 0.00972 µM).

And the MIC [2, 20]?
The MIC was 7.8 µg/mL (≈ 9.48 µM).

What about the MIC [2, 21] of the same molecule?
Its MIC is 7.8 µg/mL (≈ 9.48 µM).

What about the MIC [8, 20] of the same molecule?
Its MIC is over 64 µg/mL.

And the MIC [8, 21]?
Its MIC is over 64 µg/mL.

What about the MIC [3] of the same molecule?
The MIC was 0.004 µg/mL (≈ 0.00486 µM).

And the MIC [4]?
The MIC was 0.03 µg/mL (≈ 0.0365 µM).

And the MIC [5]?
The MIC was 0.061 µg/mL (≈ 0.0741 µM).

What about the MIC [6] of the same molecule?
The MIC was 0.013 µg/mL (≈ 0.0158 µM).

And the MIC [9]?
Its MIC is 0.98 µg/mL (≈ 1.19 µM).

And the MIC [7]?
The MIC was 0.24 µg/mL (≈ 0.292 µM).

And the MIC [10]?
The MIC was 16 µg/mL (≈ 19.4 µM).

What about the MIC ([11]; Mycolicibacterium smegmatis, ATCC700084) of the same molecule?
Its MIC is 64 µg/mL (≈ 77.8 µM).

And the MIC ([11]; rifS strain, Middlebrook Broth plus ADC Enrichment, 37° C.)?
The MIC was 64 µg/mL.

What about the MIC [12] of the same molecule?
Its MIC is 0.008 to 1 µg/mL (≈ 0.00972 to 1.22 µM).

What about the MIC [13] of the same molecule?
The MIC was 0.24 to 16 µg/mL (≈ 0.292 to 19.4 µM).
